pIC50: −log10 of the molar value.
Target: T1, Cyclophilin D (CypD; rhCypD) (Homo sapiens, UniProt P30405)
T1 construct: gene PPIF; amino acids 44 to 207 of full length human CypD, C-terminal His-tag
Assay: HTRF/TR-FRET displacement of CsA-d2 from His-tagged rhCypD; also inhibits PPIase activity (IC50 […])
Format: binding

T1 sequence (P30405 44-207): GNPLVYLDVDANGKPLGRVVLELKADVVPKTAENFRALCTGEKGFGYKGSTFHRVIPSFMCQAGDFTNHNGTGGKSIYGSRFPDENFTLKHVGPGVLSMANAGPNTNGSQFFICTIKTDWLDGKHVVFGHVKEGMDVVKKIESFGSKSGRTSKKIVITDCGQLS

`CC[C@H]1C[C@H](C)[C@@]2(NC1=O)O[C@@H](C[C@H](O)[C@@H](C)CC/C=C/C=C(\C)[C@@H]1C/C=C/C=C/[C@H](O)[C@H](C)[C@@H](O)[C@@H](CCC(C)=O)C(=O)N[C@@H](C(C)C)C(=O)N[C@@H](Cc3cccc(O)c3)C(=O)N3CCC[C@H](N3)C(=O)O1)[C@H](C)[C@H](O)[C@@H]2C` [SfA, sanglifehrin A] gave a pIC50 of 8.30.
